Experimental data as given in ChEMBL document CHEMBL4390652, “Design, biological evaluation and X-ray crystallography of nanomolar multifunctional ligands targeting simultaneously acetylcholinesterase and glycogen synthase kinase-3” (Eur J Med Chem, 2019).

Legend:
[1] = biological target: Serine/threonine-protein kinase B-raf (Homo sapiens) (UniProt P15056); assay: Binding affinity to wild-type human partial length BRAF (S429 to E741 residues) expressed in mammalian expression system assessed as residual binding level at 10 uM by Kinomescan method relative to control
[2] = biological target: Protein kinase C theta type (Homo sapiens) (UniProt Q04759); assay: Binding affinity to wild-type human partial length PRKCQ (L350 to S706 residues) expressed in bacterial expression system assessed as residual binding level at 10 uM by Kinomescan method relative to control
[3] = biological target: Platelet-derived growth factor receptor alpha (Homo sapiens) (UniProt P16234); assay: Binding affinity to wild-type human partial length PDGFRA (V575 to D1002 residues) expressed in mammalian expression system assessed as residual binding level at 10 uM by Kinomescan method relative to control
[4] = biological target: Serine/threonine-protein kinase 25 (Homo sapiens) (UniProt O00506); assay: Binding affinity to wild-type human partial length YSK1 (V14 to H295 residues) expressed in bacterial expression system assessed as residual binding level at 10 uM by Kinomescan method relative to control
[5] = system: Receptor-type tyrosine-protein kinase FLT3 (Homo sapiens), P36888 [D835Y]; assay: Binding affinity to human partial length FLT3 D835Y mutant (Q580 to Y969 residues) expressed in bacterial expression system assessed as residual binding level at 10 uM by Kinomescan method relative to control
[6] = biological target: Calcium/calmodulin-dependent protein kinase kinase 1 (Homo sapiens) (UniProt Q8N5S9); assay: Binding affinity to wild-type human partial length CAMKK1 (R65 to E414 residues) expressed in bacterial expression system assessed as residual binding level at 10 uM by Kinomescan method relative to control
[7] = biological target: Activin receptor type-1 (Homo sapiens) (UniProt Q04771); assay: Binding affinity to wild-type human ACVR1 (C188 to C509 residues) expressed in bacterial expression system assessed as residual binding level at 10 uM by Kinomescan method relative to control
NCI-H727 = assay: Cytotoxicity against human NCI-H727 cells assessed as growth inhibition incubated for 48 hrs by Hoechst 33342 staining based assay; format: cell-based; conditions: NCI-H727, 48 h
[8] = biological target: Mitogen-activated protein kinase kinase kinase 4 (Homo sapiens) (UniProt Q9Y6R4); assay: Binding affinity to wild-type human partial length MAP3K4 (G1319 to E1608 residues) expressed in bacterial expression system assessed as residual binding level at 10 uM by Kinomescan method relative to control
[9] = biological target: Serine/threonine-protein kinase Nek5 (Homo sapiens) (UniProt Q6P3R8); assay: Binding affinity to wild-type human partial length NEK5 (M1 to M279 residues) expressed in bacterial expression system assessed as residual binding level at 10 uM by Kinomescan method relative to control
[10] = biological target: Fibroblast growth factor receptor 4 (Homo sapiens) (UniProt P22455); assay: Binding affinity to wild-type human partial length FGFR4 (G402 to E713 residues) expressed in bacterial expression system assessed as residual binding level at 10 uM by Kinomescan method relative to control
[11] = biological target: Platelet-derived growth factor receptor beta (Homo sapiens) (UniProt P09619); assay: Binding affinity to wild-type human partial length PDGFRB (V582 to Y1009 residues) expressed in bacterial expression system assessed as residual binding level at 10 uM by Kinomescan method relative to control
[12] = system: Tyrosine-protein kinase ABL1 (Homo sapiens), P00519 [M351T]; assay: Binding affinity to human phosphorylated ABL1 M351T mutant (S229 to K512 residues) expressed in mammalian expression system assessed as residual binding level at 10 uM by Kinomescan method relative to control
[13] = biological target: Calcium/calmodulin-dependent protein kinase type IV (Homo sapiens) (UniProt Q16566); assay: Binding affinity to wild-type human partial length CAMK4 (A22 to A322 residues) expressed in bacterial expression system assessed as residual binding level at 10 uM by Kinomescan method relative to control
[14] = biological target: Mitogen-activated protein kinase kinase kinase 2 (Homo sapiens) (UniProt Q9Y2U5); assay: Binding affinity to wild-type human partial length MAP3K2 (S315 to H619 residues) expressed in mammalian expression system assessed as residual binding level at 10 uM by Kinomescan method relative to control
[15] = system: Mast/stem cell growth factor receptor Kit (Homo sapiens), P10721 [A829P]; assay: Binding affinity to human partial length KIT A829P mutant (I571 to D952 residues) expressed in mammalian expression system assessed as residual binding level at 10 uM by Kinomescan method relative to control
[16] = biological target: Serine/threonine-protein kinase NLK (Homo sapiens) (UniProt Q9UBE8); assay: Binding affinity to wild-type human full length NLK (M13 to E527 residues) expressed in bacterial expression system assessed as residual binding level at 10 uM by Kinomescan method relative to control
[17] = biological target: Mitogen-activated protein kinase 1 (Homo sapiens) (UniProt P28482); assay: Binding affinity to wild-type human full length ERK2 (M1 to S360 residues) expressed in bacterial expression system assessed as residual binding level at 10 uM by Kinomescan method relative to control
[18] = biological target: Mitogen-activated protein kinase kinase kinase 20 (Homo sapiens) (UniProt Q9NYL2); assay: Binding affinity to wild-type human partial length ZAK (M1 to L331 residues) expressed in bacterial expression system assessed as residual binding level at 10 uM by Kinomescan method relative to control
[19] = biological target: Vascular endothelial growth factor receptor 2 (Homo sapiens) (UniProt P35968); assay: Binding affinity to wild-type human partial length VEGFR2 (R787 to P1253 residues) expressed in mammalian expression system assessed as residual binding level at 10 uM by Kinomescan method relative to control
[20] = biological target: Serine/threonine-protein kinase 32B (Homo sapiens) (UniProt Q9NY57); assay: Binding affinity to wild-type human full length YANK2 (M1 to S414 residues) expressed in bacterial expression system assessed as residual binding level at 10 uM by Kinomescan method relative to control
[21] = biological target: Serine/threonine-protein kinase PAK 6 (Homo sapiens) (UniProt Q9NQU5); assay: Binding affinity to wild-type human partial length PAK6 (N298 to C681 residues) expressed in bacterial expression system assessed as residual binding level at 10 uM by Kinomescan method relative to control
[22] = biological target: Cyclin-dependent kinase 18 (Homo sapiens) (UniProt Q07002); assay: Binding affinity to wild-type human full length PCTK3 (M3 to F474 residues) expressed in bacterial expression system assessed as residual binding level at 10 uM by Kinomescan method relative to control
[23] = biological target: Serine/threonine-protein kinase PLK1 (Homo sapiens) (UniProt P53350); assay: Binding affinity to wild-type human partial length PLK1 (A33 to F325 residues) expressed in mammalian expression system assessed as residual binding level at 10 uM by Kinomescan method relative to control
[24] = biological target: Phosphatidylinositol 5-phosphate 4-kinase type-2 gamma (Homo sapiens) (UniProt Q8TBX8); assay: Binding affinity to wild-type human partial length PIP5K2C (M1 to A421 residues) expressed in mammalian expression system assessed as residual binding level at 10 uM by Kinomescan method relative to control

Chain of Platelet-derived growth factor receptor alpha (Homo sapiens) (P16234 whole entry, the tested form may be a part): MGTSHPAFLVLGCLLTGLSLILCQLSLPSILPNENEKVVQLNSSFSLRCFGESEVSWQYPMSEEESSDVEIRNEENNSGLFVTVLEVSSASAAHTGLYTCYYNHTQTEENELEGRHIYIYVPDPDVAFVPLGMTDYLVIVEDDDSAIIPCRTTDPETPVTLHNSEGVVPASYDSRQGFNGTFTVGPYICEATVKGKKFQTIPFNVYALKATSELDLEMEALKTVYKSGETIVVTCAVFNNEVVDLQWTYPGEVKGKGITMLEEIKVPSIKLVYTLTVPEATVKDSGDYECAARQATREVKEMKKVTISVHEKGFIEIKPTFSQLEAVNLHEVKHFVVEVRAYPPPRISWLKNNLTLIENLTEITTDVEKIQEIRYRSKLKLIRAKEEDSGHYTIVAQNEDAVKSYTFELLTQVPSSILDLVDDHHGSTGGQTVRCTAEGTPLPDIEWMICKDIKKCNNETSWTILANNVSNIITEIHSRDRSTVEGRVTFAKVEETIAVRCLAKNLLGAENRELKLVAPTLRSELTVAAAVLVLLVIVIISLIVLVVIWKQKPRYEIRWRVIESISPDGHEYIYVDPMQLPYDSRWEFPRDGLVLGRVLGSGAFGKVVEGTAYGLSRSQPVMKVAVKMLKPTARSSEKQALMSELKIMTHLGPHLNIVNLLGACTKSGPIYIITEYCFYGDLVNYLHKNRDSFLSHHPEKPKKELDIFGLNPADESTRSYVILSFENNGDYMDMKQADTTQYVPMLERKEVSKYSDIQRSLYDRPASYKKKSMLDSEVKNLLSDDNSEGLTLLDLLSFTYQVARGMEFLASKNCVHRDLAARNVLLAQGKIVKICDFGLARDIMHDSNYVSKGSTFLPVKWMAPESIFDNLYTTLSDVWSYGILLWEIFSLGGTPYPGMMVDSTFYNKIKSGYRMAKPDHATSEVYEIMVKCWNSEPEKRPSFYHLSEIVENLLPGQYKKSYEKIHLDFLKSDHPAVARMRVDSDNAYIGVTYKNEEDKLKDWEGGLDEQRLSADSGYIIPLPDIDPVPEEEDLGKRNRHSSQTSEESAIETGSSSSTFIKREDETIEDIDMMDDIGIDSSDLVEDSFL
Chain of Calcium/calmodulin-dependent protein kinase kinase 1 (Homo sapiens) (Q8N5S9 whole entry, looked up, the tested form may be a part): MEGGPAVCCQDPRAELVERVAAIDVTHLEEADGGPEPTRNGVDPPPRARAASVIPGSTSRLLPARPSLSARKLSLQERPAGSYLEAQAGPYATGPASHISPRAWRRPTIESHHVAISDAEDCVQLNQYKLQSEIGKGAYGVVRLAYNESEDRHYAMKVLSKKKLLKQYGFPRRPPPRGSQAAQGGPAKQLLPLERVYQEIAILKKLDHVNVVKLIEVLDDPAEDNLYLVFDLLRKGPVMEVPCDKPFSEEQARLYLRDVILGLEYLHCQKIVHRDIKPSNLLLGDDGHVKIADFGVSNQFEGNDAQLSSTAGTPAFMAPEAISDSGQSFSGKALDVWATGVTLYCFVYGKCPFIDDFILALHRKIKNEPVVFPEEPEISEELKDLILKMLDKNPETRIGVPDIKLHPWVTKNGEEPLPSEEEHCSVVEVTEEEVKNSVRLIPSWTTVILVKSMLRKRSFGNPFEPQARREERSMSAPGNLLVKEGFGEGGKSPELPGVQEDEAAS
Chain of Serine/threonine-protein kinase 32B (Homo sapiens) (Q9NY57 whole entry, the tested form may be a part): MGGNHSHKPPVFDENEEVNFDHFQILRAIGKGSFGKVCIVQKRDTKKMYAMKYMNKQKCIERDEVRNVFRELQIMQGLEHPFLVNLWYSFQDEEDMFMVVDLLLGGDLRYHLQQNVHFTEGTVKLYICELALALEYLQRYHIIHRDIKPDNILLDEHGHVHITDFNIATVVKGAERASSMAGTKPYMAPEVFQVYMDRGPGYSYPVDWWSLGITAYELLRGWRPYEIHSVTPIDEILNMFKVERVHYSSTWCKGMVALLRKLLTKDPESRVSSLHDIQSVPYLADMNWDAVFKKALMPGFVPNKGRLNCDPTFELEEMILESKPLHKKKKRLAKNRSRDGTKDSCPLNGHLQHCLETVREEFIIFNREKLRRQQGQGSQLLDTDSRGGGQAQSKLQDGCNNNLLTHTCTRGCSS
Chain of Mitogen-activated protein kinase 1 (Homo sapiens) (P28482 whole entry, the tested form may be a part): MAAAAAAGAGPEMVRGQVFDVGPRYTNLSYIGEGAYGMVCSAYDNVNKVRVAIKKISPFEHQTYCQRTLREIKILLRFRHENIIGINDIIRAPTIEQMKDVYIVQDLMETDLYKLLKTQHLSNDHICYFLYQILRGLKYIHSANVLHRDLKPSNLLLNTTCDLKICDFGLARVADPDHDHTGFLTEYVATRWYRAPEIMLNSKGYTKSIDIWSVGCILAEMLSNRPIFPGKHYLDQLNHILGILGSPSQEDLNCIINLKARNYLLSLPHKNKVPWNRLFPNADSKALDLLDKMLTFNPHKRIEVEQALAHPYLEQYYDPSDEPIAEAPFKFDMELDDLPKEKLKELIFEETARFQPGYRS
Chain of Serine/threonine-protein kinase B-raf (Homo sapiens) (P15056 whole entry, the tested form may be a part): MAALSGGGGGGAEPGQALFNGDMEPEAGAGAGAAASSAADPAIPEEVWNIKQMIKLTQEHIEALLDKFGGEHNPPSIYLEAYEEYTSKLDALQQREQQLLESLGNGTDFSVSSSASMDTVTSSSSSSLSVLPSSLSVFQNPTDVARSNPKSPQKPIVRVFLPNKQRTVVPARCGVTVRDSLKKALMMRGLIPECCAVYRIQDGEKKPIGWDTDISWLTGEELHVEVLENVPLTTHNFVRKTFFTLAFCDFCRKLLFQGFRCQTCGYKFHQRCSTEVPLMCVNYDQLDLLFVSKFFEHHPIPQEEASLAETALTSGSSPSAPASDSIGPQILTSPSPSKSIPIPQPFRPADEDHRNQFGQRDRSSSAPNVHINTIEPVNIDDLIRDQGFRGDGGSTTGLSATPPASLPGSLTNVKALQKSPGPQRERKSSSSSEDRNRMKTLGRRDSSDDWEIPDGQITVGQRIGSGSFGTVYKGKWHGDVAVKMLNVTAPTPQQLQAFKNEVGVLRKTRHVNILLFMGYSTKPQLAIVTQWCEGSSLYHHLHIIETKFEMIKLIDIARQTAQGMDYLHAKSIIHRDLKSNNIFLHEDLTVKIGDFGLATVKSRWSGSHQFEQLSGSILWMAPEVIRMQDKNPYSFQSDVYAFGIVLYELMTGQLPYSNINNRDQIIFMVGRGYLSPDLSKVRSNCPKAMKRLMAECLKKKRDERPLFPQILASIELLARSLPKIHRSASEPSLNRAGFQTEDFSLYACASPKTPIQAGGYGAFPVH
Chain of Serine/threonine-protein kinase 25 (Homo sapiens) (O00506 whole entry, looked up, the tested form may be a part): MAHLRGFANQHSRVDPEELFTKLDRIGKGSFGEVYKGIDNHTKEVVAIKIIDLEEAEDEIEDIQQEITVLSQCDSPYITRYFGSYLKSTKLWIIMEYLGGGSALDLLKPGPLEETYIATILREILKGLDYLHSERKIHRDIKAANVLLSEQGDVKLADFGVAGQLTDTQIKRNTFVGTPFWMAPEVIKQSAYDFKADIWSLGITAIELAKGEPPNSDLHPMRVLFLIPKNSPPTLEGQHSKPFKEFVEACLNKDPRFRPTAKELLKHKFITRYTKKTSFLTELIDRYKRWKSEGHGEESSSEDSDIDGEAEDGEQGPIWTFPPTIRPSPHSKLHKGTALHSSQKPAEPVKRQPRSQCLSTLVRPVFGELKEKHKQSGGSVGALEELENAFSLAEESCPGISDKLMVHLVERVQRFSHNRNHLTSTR
Chain of Fibroblast growth factor receptor 4 (Homo sapiens) (P22455 22-802 limits assumed): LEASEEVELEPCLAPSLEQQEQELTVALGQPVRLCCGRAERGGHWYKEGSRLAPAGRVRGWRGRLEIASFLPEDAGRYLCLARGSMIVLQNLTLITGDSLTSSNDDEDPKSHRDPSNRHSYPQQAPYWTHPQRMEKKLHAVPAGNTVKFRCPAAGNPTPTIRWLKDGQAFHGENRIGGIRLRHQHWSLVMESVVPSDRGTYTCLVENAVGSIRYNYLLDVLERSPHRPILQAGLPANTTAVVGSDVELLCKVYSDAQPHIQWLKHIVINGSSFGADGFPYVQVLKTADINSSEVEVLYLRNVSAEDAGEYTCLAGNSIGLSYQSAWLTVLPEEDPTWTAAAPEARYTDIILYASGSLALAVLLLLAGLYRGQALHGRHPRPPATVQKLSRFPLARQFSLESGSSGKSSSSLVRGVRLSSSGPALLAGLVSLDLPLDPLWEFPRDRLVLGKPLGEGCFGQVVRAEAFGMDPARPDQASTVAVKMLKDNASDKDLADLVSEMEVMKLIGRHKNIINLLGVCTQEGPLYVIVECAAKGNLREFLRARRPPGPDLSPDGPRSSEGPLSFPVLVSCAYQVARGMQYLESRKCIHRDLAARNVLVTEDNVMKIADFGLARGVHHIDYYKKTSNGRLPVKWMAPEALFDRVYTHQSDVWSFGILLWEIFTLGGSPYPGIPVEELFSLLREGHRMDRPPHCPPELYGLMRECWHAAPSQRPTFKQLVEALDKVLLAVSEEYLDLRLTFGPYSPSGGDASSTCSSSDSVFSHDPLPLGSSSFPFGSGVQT
Chain of Mitogen-activated protein kinase kinase kinase 2 (Homo sapiens) (Q9Y2U5 whole entry, the tested form may be a part): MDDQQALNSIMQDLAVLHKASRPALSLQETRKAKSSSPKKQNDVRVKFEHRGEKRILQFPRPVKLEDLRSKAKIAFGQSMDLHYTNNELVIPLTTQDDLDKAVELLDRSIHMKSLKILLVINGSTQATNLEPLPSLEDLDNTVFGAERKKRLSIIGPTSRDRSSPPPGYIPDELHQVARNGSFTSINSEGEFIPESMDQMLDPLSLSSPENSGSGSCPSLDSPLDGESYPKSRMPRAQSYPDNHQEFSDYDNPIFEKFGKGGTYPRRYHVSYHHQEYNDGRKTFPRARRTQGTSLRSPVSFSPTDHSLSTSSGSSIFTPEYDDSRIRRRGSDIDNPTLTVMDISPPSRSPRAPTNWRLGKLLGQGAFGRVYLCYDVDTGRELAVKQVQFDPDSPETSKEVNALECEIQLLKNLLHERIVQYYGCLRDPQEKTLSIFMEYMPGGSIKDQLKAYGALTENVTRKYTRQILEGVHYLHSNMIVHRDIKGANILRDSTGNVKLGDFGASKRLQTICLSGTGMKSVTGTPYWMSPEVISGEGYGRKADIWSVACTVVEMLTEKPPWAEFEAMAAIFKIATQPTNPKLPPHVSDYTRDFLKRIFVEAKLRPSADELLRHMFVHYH

O=C(Nc1cc(-c2cn(CCNc3c4c(nc5ccccc35)CCCC4)nn2)ccn1)Nc1cccc2c1C1CCCCN1C2=O (racemic)
Activity [1]: 51%
Activity [2]: 27%
Activity [3]: 22%
Activity [4]: 54%
Activity [5]: 1.1%
Activity [6]: 23%
Activity [7]: 49%
IC50 (NCI-H727): 2000 nM
Activity [8]: 79%
Activity [9]: 82%
Activity [10]: 100%
Activity [11]: 2.3%
Activity [12]: 2.1%
Activity [13]: 100%
Activity [14]: 9.1%
Activity [15]: 3.9%
Activity [16]: 70%
Activity [17]: 94%
Activity [18]: 31%
Activity [19]: 9.1%
Activity [20]: 100%
Activity [21]: 66%
Activity [22]: 6.2%
Activity [23]: 81%
Activity [24]: 3.4%
